The record followed here is patent publication US11071735B2, “Treatment of inflammatory conditions and autoimmune diseases with glucose uptake inhibitors” (Kadmon Corporation, LLC, priority 2017, dated 2021).

Common to all, as to format: cell-based
In test [1] the test system is GLUT. As to the kind of experiment: glycolysis assay (oligomycin + Cell Titer-Glo ATP readout) in HT1080 cells. As to conditions: 10 μM oligomycin, one hour, glycolytically-derived ATP. From the text:
The combination of inhibitors of both oxidative phosphorylation and glycolysis synergistically suppress cellular ATP levels. Therefore, our assay utilizes the combination of our glucose uptake inhibitors with oligomycin, a well-characterized inhibitor of ATP synthase. Because oligomycin inhibits ATP derived from oxidative phosphorylation, any remaining ATP production is derived from glycolysis. By reading out cellular ATP levels using the Promega
Titer Glo kit, we can assess the extent of glycolysis inhibition by our glucose uptake inhibitors. Using this experimental set-up in HT1080 cancer cells, we determined the IC50 of glycolysis inhibition for the compounds.
(§1) Determination of glucose uptake/GLUT activity (glycolysis assay): HT1080 cells, DLD1 cells (WT and GLUT1−/−) and human CD4+ T cells were plated in 96-well plates. Cells were exposed to the combination of 10 μM Oligomycin (to block mitochondrial-derived ATP) and the glucose uptake inhibitors disclosed herein for one-hour, after which glycolytically-derived ATP was measured with the Cell Titer-Glo assay kit (Promega). Dose-response curves of the glucose uptake inhibitors disclosed herein were used to determine the IC50 for GLUT activity.
In general terms: In ATP-based viability assays light output follows the ATP content of the culture.

Test [2] deals with T1, GLUT1 (Homo sapiens, UniProt P11166).
T1 construct: endogenous in cells; host or cells: DLD1 WT cancer cells
T1 sequence (P11166 1-492): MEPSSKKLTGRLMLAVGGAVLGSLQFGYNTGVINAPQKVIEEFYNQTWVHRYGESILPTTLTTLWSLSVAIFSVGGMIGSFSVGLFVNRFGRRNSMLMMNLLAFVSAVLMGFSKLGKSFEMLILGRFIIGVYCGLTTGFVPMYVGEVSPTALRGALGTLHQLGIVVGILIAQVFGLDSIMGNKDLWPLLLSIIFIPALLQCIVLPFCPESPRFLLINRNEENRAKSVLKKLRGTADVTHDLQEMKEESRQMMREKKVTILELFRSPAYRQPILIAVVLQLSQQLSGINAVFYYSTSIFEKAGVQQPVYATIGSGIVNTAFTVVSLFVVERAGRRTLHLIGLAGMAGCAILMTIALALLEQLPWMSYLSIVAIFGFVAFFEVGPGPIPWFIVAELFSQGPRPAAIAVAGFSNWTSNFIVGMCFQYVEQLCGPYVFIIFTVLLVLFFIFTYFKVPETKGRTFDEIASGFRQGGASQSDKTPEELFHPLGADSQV
As to the kind of experiment: glycolysis assay in DLD1 WT cells (rely on GLUT1). The settings on record: DLD1-WT cells; 10 μM oligomycin, one hour. How it is done: (§2) Cells were treated with GLUT inhibitors plus oligomycin and subsequently ATP levels were determined using Cell Titer Glo. […] FIG. 1B reports the IC50 of glycolysis inhibition for selected compounds.
(§3) Accordingly, we have investigated the use of inhibitors of GLUT transporters against activated pro-inflammatory immune cells, including but not limited to activated human CD4+ T cells. In order to understand what GLUT transporters are required to sustain glycolysis in activated T cells, we first utilized the syngeneic cancer cell lines DLD1 WT and DLD GLUT1−/− that rely on GLUT1 and GLUT3 expression, respectively, for glucose transport. Within this system, we have identified small molecules that simultaneously have the property of inhibiting both GLUT1 and GLUT3 mediated glucose transport. In addition, we have confirmed the GLUT1-selective nature of a published small molecule inhibitor of GLUT1 (Chem Med Chem. 2016 Oct. 19; 11(20):2261-2271).
as §1

The target of test [3] is T2, GLUT3 (Homo sapiens, UniProt P11169).
T2 construct: endogenous in cells; host or cells: DLD1 GLUT1−/− (knock-out) cancer cells
T2 sequence (P11169 1-496): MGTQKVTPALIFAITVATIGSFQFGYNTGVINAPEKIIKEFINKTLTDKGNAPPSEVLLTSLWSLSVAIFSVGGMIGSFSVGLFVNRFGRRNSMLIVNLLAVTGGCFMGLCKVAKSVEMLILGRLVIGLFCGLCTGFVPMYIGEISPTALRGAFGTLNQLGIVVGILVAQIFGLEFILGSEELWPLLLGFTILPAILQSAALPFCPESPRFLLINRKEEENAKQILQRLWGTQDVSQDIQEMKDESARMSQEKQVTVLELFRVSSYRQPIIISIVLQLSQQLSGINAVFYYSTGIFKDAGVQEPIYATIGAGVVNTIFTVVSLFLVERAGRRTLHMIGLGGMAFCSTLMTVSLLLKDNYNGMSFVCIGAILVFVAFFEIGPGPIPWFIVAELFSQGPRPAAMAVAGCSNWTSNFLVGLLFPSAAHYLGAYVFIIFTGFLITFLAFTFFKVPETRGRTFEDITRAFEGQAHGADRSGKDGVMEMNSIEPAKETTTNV
As to the kind of experiment: glycolysis assay in DLD1 GLUT1−/− cells (rely on GLUT3). The settings on record: DLD1-KO (GLUT1−/−) cells; 10 μM oligomycin, one hour. As for the experimental part: as §2, §3, §1

The structures appear in SMILES notation.

What is called IC50 is the concentration that inhibits the measured activity by half. Regarding `COc1ccc2nc(-c3cccc(OCC(=O)NC(C)C)c3)nc(Nc3ccc(-c4cn[nH]c4)cc3F)c2c1` [Ex. 20, 2-(3-(4-((2-fluoro-4-(1H-pyrazol-4-yl)phenyl)amino)-6-methoxyquinazolin-2-yl)phenoxy)-N-isopropylacetamide], the IC50 is 423 nM in test [1], 709 nM in test [2] and 177 nM in test [3].
`CCOc1ccc2nc(-c3cccc(OCC(=O)NC(C)C)c3)nc(Nc3ccc(-c4cn[nH]c4)cc3F)c2c1` [Ex. 21, 2-(3-(6-ethoxy-4-((2-fluoro-4-(1H-pyrazol-4-yl)phenyl)amino)quinazolin-2-yl)phenoxy)-N-isopropylacetamide]: the IC50 in test [1] turned out to be 408 nM; in test [2], 786 nM; in test [3], 248 nM.
The matching figures for `CCC(C)NC(=O)COc1cccc(-c2nc(Nc3ccc(-c4cn[nH]c4)cc3)c3cc(OC)ccc3n2)c1` (stereo not drawn) [Ex. 22, 2-(3-(4-((4-(1H-pyrazol-4-yl)phenyl)amino)-6-methoxyquinazolin-2-yl)phenoxy)-N-(sec-butyl)acetamide]: 112 nM, 105 nM and 66.8 nM.
For the molecule `COc1ccc2nc(-c3cccc(OCC(=O)NC(CF)CF)c3)nc(Nc3ccc(-c4cn[nH]c4)cc3)c2c1` [Ex. 23, 2-(3-(4-((4-(1H-pyrazol-4-yl)phenyl)amino)-6-methoxyquinazolin-2-yl)phenoxy)-N-(1,3-difluoropropan-2-yl)acetamide], the half-maximal inhibitory concentration (IC50) in test [1] came out at 258 nM; in test [2], 463 nM; in test [3], 110 nM.
On to `CCOc1ccc2nc(-c3cccc(OCC(=O)NCC(F)(F)F)c3)nc(Nc3ccc(-c4cn[nH]c4)cc3)c2c1` [Ex. 24, 2-(3-(4-((4-(1H-pyrazol-4-yl)phenyl)amino)-6-ethoxyquinazolin-2-yl)phenoxy)-N-(2,2,2-trifluoroethyl)acetamide], for which the figures for the IC50 in test [1], in test [2] and in test [3] were 454 nM, 801 nM and 86 nM, respectively.
`COc1ccc2nc(-c3cccc(OCC(=O)NCC(F)(F)F)c3)nc(Nc3ccc(-c4cn[nH]c4)cc3)c2c1` [Ex. 25, 2-(3-(4-((4-(1H-pyrazol-4-yl)phenyl)amino)-6-methoxyquinazolin-2-yl)phenoxy)-N-(2,2,2-trifluoroethyl)acetamide]: the IC50 was 433 nM in test [1], 1070 nM in test [2] and 68.4 nM in test [3].
For the molecule `CCOc1ccc2nc(-c3cccc(OCC(=O)NC(C)(C)C)c3)nc(Nc3ccc(-c4cc[nH]n4)cc3)c2c1` [Ex. 27, 2-(3-(4-((4-(1H-Pyrazol-3-yl)phenyl)amino)-6-ethoxyquinazolin-2-yl)phenoxy)-N-(tert-butyl)acetamide], the results for the IC50 in test [1], in test [2] and in test [3] were 310 nM, 252 nM and 116 nM, respectively.
For the molecule `CCOc1ccc2nc(-c3cccc(OCC(=O)NC(C)C)c3)nc(Nc3ccc(-c4cc[nH]n4)cc3)c2c1` [Ex. 28, 2-(3-(4-((4-(1H-Pyrazol-3-yl)phenyl)amino)-6-ethoxyquinazolin-2-yl)phenoxy)-N-isopropylacetamide], the IC50 in test [1] worked out at 545 nM; in test [2], 496 nM; in test [3], 105 nM.
Take `CC(C)(C)NC(=O)COc1cccc(-c2nc(Nc3ccc(-c4cn[nH]c4)cc3)c3cc(F)ccc3n2)c1` [Ex. 29, 2-(3-(4-((4-(1H-Pyrazol-4-yl)phenyl)amino)-6-fluoroquinazolin-2-yl)phenoxy)-N-(tert-butyl)acetamide]: the IC50 in test [1] came out at 123 nM; in test [2] it was 124 nM; in test [3] it was 142 nM.
With `CC(C)(C)NC(=O)COc1cccc(-c2nc(Nc3ccc(-c4cn[nH]c4)cc3)c3ccc(F)cc3n2)c1` [Ex. 30, 2-(3-(4-((4-(1H-Pyrazol-4-yl)phenyl)amino)-7-fluoroquinazolin-2-yl)phenoxy)-N-(tert-butyl)acetamide], the figures for the IC50 in test [1], in test [2] and in test [3] were 425 nM, 624 nM and 195 nM, respectively.
Regarding `COCCOc1ccc2nc(-c3cccc(OCC(=O)NC(C)C)c3)nc(Nc3ccc(-c4cn[nH]c4)cc3)c2c1` [Ex. 31, 2-(3-(4-((4-(1H-Pyrazol-4-yl)phenyl)amino)-6-(2-methoxyethoxy)quinazolin-2-yl)phenoxy)-N-isopropylacetamide], the results for the IC50 in test [1], in test [2] and in test [3] were 53.5 nM, 62.1 nM and 59.2 nM, respectively.
With `CCCOc1ccc2nc(-c3cccc(OCC(=O)NC(C)C)c3)nc(Nc3ccc(-c4cn[nH]c4)cc3)c2c1` [Ex. 32, 2-(3-(4-((4-(1H-Pyrazol-4-yl)phenyl)amino)-6-propoxyquinazolin-2-yl)phenoxy)-N-isopropylacetamide], the IC50 in test [1] stood at 188 nM; in test [2] it was 178 nM; in test [3] it was 305 nM.
The matching figures for `CC(C)NC(=O)COc1cccc(-c2nc(Nc3ccc(-c4cn[nH]c4)cc3)c3cc(F)ccc3n2)c1` [Ex. 33, 2-(3-(4-((4-(1H-pyrazol-4-yl)phenyl)amino)-6-fluoroquinazolin-2-yl)phenoxy)-N-isopropylacetamide]: 424 nM, 802 nM and 183 nM.
For `CC(C)NC(=O)COc1cccc(-c2nc(Nc3ccc(-c4cn[nH]c4)cc3)c3ccc(F)cc3n2)c1` [Ex. 34, 2-(3-(4-((4-(1H-Pyrazol-4-yl)phenyl)amino)-7-fluoroquinazolin-2-yl)phenoxy)-N-isopropylacetamide] the same measures were 418 nM, 797 nM and 197 nM.
As to `CCOc1ccc2nc(-c3cccc(OCC(=O)N[C@@H](C)CC)c3)nc(Nc3ccc(-c4cn[nH]c4)cc3)c2c1` [Ex. 35, (S)-2-(3-(4-((4-(1H-Pyrazol-4-yl)phenyl)amino)-6-ethoxyquinazolin-2-yl)phenoxy)-N-(sec-butyl)acetamide], the IC50 in test [1] is 134 nM; in test [2], 130 nM; in test [3], 94.2 nM.
On to `CCOc1ccc2nc(-c3cccc(OCC(=O)N[C@H](C)CC)c3)nc(Nc3ccc(-c4cn[nH]c4)cc3)c2c1` [Ex. 36, (R)-2-(3-(4-((4-(1H-Pyrazol-4-yl)phenyl)amino)-6-ethoxyquinazolin-2-yl)phenoxy)-N-(sec-butyl)acetamide], for which the IC50 in test [1] turned out to be 137 nM; in test [2], 116 nM; in test [3], 130 nM.
On to `CCCOc1ccc2nc(-c3cccc(OCC(=O)NC(C)(C)C)c3)nc(Nc3ccc(-c4cn[nH]c4)cc3)c2c1` [Ex. 37, 2-(3-(4-((4-(1H-Pyrazol-4-yl)phenyl)amino)-6-propoxyquinazolin-2-yl)phenoxy)-N-(tert-butyl)acetamide], for which the IC50 in test [1] was 128 nM; in test [2], 89.3 nM; in test [3] it was 158 nM.
The matching figures for `CC(C)(C)NC(=O)COc1cccc(-c2nc(Nc3ccc(-c4cn[nH]c4)cc3)c3cc(OCCF)ccc3n2)c1` [Ex. 38, 2-(3-(4-((4-(1H-Pyrazol-4-yl)phenyl)amino)-6-(2-fluoroethoxy)quinazolin-2-yl)phenoxy)-N-(tert-butyl)acetamide]: 60.8 nM, 65.7 nM and 51.5 nM.
